Tests used:
Assay type in all cases: cell-based
[1] = system: Staphylococcus haemolyticus 105; test: MIC, standard broth micro-dilution assay, SH 105
Experimental: (§1) The antibacterial efficacy of the present compounds is illustrated by Table II. The minimal inhibitory concentrations (MICs) were determined using a standard broth micro-dilution assay.

[2] = system: Staphylococcus aureus 446; test: MIC, standard broth micro-dilution assay, SA 446
Experimental: as §1

[3] = system: Streptococcus pyogenes C203; test: MIC, standard broth micro-dilution assay, SPY C203
Experimental: as §1

[4] = system: Staphylococcus haemolyticus 415; test: MIC, standard broth micro-dilution assay, SH 415
Experimental: as §1

[5] = system: Streptococcus pneumoniae P1; test: MIC, standard broth micro-dilution assay, SPN P1
Experimental: as §1

[6] = system: Staphylococcus aureus 489; test: MIC, standard broth micro-dilution assay, SA 489
Experimental: as §1

[7] = system: Staphylococcus aureus 447; test: MIC, standard broth micro-dilution assay, SA 447
Experimental: as §1

[8] = system: Enterococcus faecium and faecalis (SENSITIVE); details: geometric mean of 4-6 isolates
Experimental: as §1

[9] = system: Enterococcus faecium and faecalis (RESISTANT); details: geometric mean of 4-6 isolates
Experimental: as §1

[10] = system: Staphylococcus epidermidis 270; test: MIC, standard broth micro-dilution assay, SE 270
Experimental: as §1

Row | SMILES | Minimal Inhibitory Concentration (MIC) SH 105 [1] | Minimal Inhibitory Concentration (MIC) SA 446 [2] | Minimal Inhibitory Concentration (MIC) SPY C203 [3] | Minimal Inhibitory Concentration (MIC) SH 415 [4] | Minimal Inhibitory Concentration (MIC) SPN P1 [5] | Minimal Inhibitory Concentration (MIC) SA 489 [6] | Minimal Inhibitory Concentration (MIC) SA 447 [7] | Minimal Inhibitory Concentration (MIC) SENSITIVE [8] | Minimal Inhibitory Concentration (MIC) RESISTANT [9] | Minimal Inhibitory Concentration (MIC) SE 270 [10]
1 | CC(C)C[C@H](C(=O)N[C@H]1C(=O)N[C@@H](CC(N)=O)C(=O)N[C@H]2C(=O)N[C@H]3C(=O)N[C@H](C(=O)N[C@H](C(=O)O)c4cc(O)cc(O)c4-c4cc3ccc4O)[C@H](O[C@H]3C[C@](C)(N)[C@@H](O)[C@H](C)O3)c3ccc(c(Cl)c3)Oc3cc2cc(c3O[C@@H]2O[C@H](CO)[C@@H](O)[C@H](O)[C@H]2O[C@H]2C[C@](C)(NCc3ccc(Cl)cc3)[C@@H](O)[C@H](C)O2)Oc2ccc(cc2Cl)[C@H]1O)N(C)C(=S)Nc1ccccc1 [Example 2, N^LEU -(PHENYLTHIOCARBAMOYL)-N^DISACC -(p-CHLOROBENZYL)A82846B] | 8 | 2 | 0.125 | 16 | 0.25 | 2 | 2 | 3.4 | 128 | 4
2 | CC(C)CC(C(=O)NC1C(=O)NC(CC(N)=O)C(=O)NC2C(=O)NC3C(=O)NC(C(=O)NC(C(=O)O)c4cc(O)cc(O)c4-c4cc3ccc4O)C(OC3CC(C)(N)C(O)C(C)O3)c3ccc(c(Cl)c3)Oc3cc2cc(c3OC2OC(CO)C(O)C(O)C2OC2CC(C)(N)C(O)C(C)O2)Oc2ccc(cc2Cl)C1O)N(C)C(=S)Nc1ccccc1 (stereo not drawn) [Example 1, N^LEU -(PHENYLTHIOCARBAMOYL)A82846B] | 64 | 8 | 2 | > 64 | 2 | 4 | 8 | 16 | > 128 | 8
3 | CCCCc1ccc(NC(=S)N(C)C(CC(C)C)C(=O)NC2C(=O)NC(CC(N)=O)C(=O)NC3C(=O)NC4C(=O)NC(C(=O)NC(C(=O)O)c5cc(O)cc(O)c5-c5cc4ccc5O)C(OC4CC(C)(N)C(O)C(C)O4)c4ccc(c(Cl)c4)Oc4cc3cc(c4OC3OC(CO)C(O)C(O)C3OC3CC(C)(N)C(O)C(C)O3)Oc3ccc(cc3Cl)C2O)cc1 (stereo not drawn) [Example 17, N^LEU -((p-n-BUTYLPHENYL)-THIOCARBAMOYL)A82846B] | 4 | 2 | 0.25 | 32 | ≤ 0.06 | 1 | 1 | 6.1 | > 128 | 2
4 | CC(C)CC(C(=O)NC1C(=O)NC(CC(N)=O)C(=O)NC2C(=O)NC3C(=O)NC(C(=O)NC(C(=O)O)c4cc(O)cc(O)c4-c4cc3ccc4O)C(OC3CC(C)(N)C(O)C(C)O3)c3ccc(c(Cl)c3)Oc3cc2cc(c3OC2OC(CO)C(O)C(O)C2OC2CC(C)(N)C(O)C(C)O2)Oc2ccc(cc2Cl)C1O)N(C)C(=S)Nc1ccc(OCc2ccccc2)cc1 (stereo not drawn) [Example 16, N^LEU -((p-(BENZYLOXY)PHENYL)-THIOCARBAMOYL)A82846B] | 8 | 1 | ≤ 0.06 | 64 | 0.125 | 0.5 | 1 | 7 | > 128 | 4
5 | CC(C)CC(C(=O)NC1C(=O)NC(CC(N)=O)C(=O)NC2C(=O)NC3C(=O)NC(C(=O)NC(C(=O)O)c4cc(O)cc(O)c4-c4cc3ccc4O)C(OC3CC(C)(N)C(O)C(C)O3)c3ccc(c(Cl)c3)Oc3cc2cc(c3OC2OC(CO)C(O)C(O)C2OC2CC(C)(N)C(O)C(C)O2)Oc2ccc(cc2Cl)C1O)N(C)C(=S)Nc1cccc2ccccc12 (stereo not drawn) [Example 5, N^LEU -(1-NAPHTHYLTHIOCARBAMOYL)A82846B] | 64 | 8 | 0.5 | > 64 | 1 | > 64 | 8 | 9.5 | > 128 | 32
6 | COc1ccc(NC(=S)N(C)C(CC(C)C)C(=O)NC2C(=O)NC(CC(N)=O)C(=O)NC3C(=O)NC4C(=O)NC(C(=O)NC(C(=O)O)c5cc(O)cc(O)c5-c5cc4ccc5O)C(OC4CC(C)(N)C(O)C(C)O4)c4ccc(c(Cl)c4)Oc4cc3cc(c4OC3OC(CO)C(O)C(O)C3OC3CC(C)(NCc4ccc(Cl)cc4)C(O)C(C)O3)Oc3ccc(cc3Cl)C2O)cc1 (stereo not drawn) [Example 13, N^LEU -((p-METHOXYPHENYL)-THIOCARBAMOYL)-N^DISACC -(p-CHLOROBENZYL)A82846B] | 4 | 4 | ≤ 0.06 | 8 | ≤ 0.06 | 2 | 2 | 3.5 | > 128 | 2
7 | CC(C)CC(C(=O)NC1C(=O)NC(CC(N)=O)C(=O)NC2C(=O)NC3C(=O)NC(C(=O)NC(C(=O)O)c4cc(O)cc(O)c4-c4cc3ccc4O)C(OC3CC(C)(N)C(O)C(C)O3)c3ccc(c(Cl)c3)Oc3cc2cc(c3OC2OC(CO)C(O)C(O)C2OC2CC(C)(N)C(O)C(C)O2)Oc2ccc(cc2Cl)C1O)N(C)C(=S)Nc1ccc([N+](=O)[O-])cc1 (stereo not drawn) [Example 14, N^LEU -((p-NITROPHENYL)-THIOCARBAMOYL)A82846B] | 16 | 2 | ≤ 0.06 | 32 | 0.25 | 2 | 4 | 3.5 | > 128 | 4
8 | CC(C)CC(C(=O)NC1C(=O)NC(CC(N)=O)C(=O)NC2C(=O)NC3C(=O)NC(C(=O)NC(C(=O)O)c4cc(O)cc(O)c4-c4cc3ccc4O)C(OC3CC(C)(N)C(O)C(C)O3)c3ccc(c(Cl)c3)Oc3cc2cc(c3OC2OC(CO)C(O)C(O)C2OC2CC(C)(N)C(O)C(C)O2)Oc2ccc(cc2Cl)C1O)N(C)C(=S)Nc1ccc(N(C)C)cc1 (stereo not drawn) [Example 15, N^LEU -((p-(DIMETHYLAMINO)-PHENYL)THIOCARBAMOYL)A82846B] | > 64 | 8 | 0.25 | > 64 | 0.25 | 4 | 16 | 24 | > 128 | 16
9 | CC(C)CC(C(=O)NC1C(=O)NC(CC(N)=O)C(=O)NC2C(=O)NC3C(=O)NC(C(=O)NC(C(=O)O)c4cc(O)cc(O)c4-c4cc3ccc4O)C(OC3CC(C)(N)C(O)C(C)O3)c3ccc(c(Cl)c3)Oc3cc2cc(c3OC2OC(CO)C(O)C(O)C2OC2CC(C)(NCc3ccc(Oc4ccccc4)cc3)C(O)C(C)O2)Oc2ccc(cc2Cl)C1O)N(C)C(=S)Nc1ccc(OCc2ccccc2)cc1 (stereo not drawn) [Example 20, N^LEU -((p-(BENZYLOXY)PHENYL)-THIOCARBAMOYL)-N^DISACC -(p-PHENOXYBENZYL)A82846B] | 2 | 4 | ≤ 0.06 | 2 | 4 | 2 | 2 | 5.6 | 9.5 | 1

Reference: patent publication US5919771A, “Urea and thiourea derivatives of glycopeptides” (Eli Lilly and Company, priority 1998, dated 1999)
